SMILES | melting point
COc1ccc(/C(=C\C=C\C(=O)Oc2ccc([N+](=O)[O-])cc2)C2CC2)cc1 | 111 to 112 °C
Cc1cc(N)cc2c1NC(=O)CC2C (stereo unspecified) | 207 to 210 °C
CCOC(=O)c1c(O)c2cc(OCc3ccccc3)ccc2c(=O)n1CC(C)C | 92 to 93 °C
C#CCOc1ccc2cc(C(=O)OCC)c(=O)oc2c1 | 252 °C
CNc1c(N)cnn1C | 185 to 188 °C
OCC1OC(n2cnc3c(NCC(c4ccc(Cl)cc4)c4ccc(Cl)cc4)ncnc32)C(O)C1O (stereo unspecified) | 95 to 120 °C
O=C1NN=C(c2ccc(C3CCCCC3)cc2)C2CC12 (stereo unspecified) | 211 to 212 °C
CCCCc1cn(-c2ccccc2C(C)C)c(=O)n1Cc1ccc(-c2ccccc2-c2nnn[nH]2)cc1 | 167 to 168 °C
O=c1[nH]nnn1-c1ccc([N+](=O)[O-])cc1F | 148 to 150 °C
COc1nc(-c2ccc(F)cc2)c(-c2ccc(S(C)(=O)=O)cc2)cc1C#N | 202 to 204 °C
O=C(O)CCn1c(=S)sc2ccccc21 | 164 to 165 °C
CSCN1C(=O)c2cccnc2N(CSC)c2cc(Cl)ccc21 | 181 to 182 °C
CCCC12CCC3C4=C(CCC3C1CCC2O)CC(OC)=CC4 (stereo unspecified) | 153 to 156 °C
O=C(CC12CC3CC(CC(C3)C1)C2)Nc1ccc(O)cc1Cl | 224 to 225 °C
OCc1cc2ccc3ccc4ccccc4c3c2o1 | 125 to 126 °C
CN(C)CCNC(=O)Oc1ccc(Cl)cc1Cn1nc(-c2ccc(C(F)(F)F)cc2)oc1=O | 158 to 159 °C
CCC(=O)NC[C@@H]1C[C@H]1c1c(I)ccc2c1CCO2 (relative stereo) | 148 to 149 °C
O=C(O)CC[C@H](NC(=O)c1cc2ccccc2[nH]1)C(=O)NC(c1ccc(Cl)cc1)c1ccc(Cl)cc1 | 207 °C
CCCc1nc2c(N)nc3cccnc3c2n1CCCC(=O)N1CCOCC1 | 196 to 197 °C

SMILES | melting point
Cc1cc(Br)cnc1CCCNc1ncc(Cc2cccnc2)cc1O | 141 to 143 °C
CCOCCOc1ccccc1COc1ccc2c(c1)C=C(C(=O)Nc1ccc(CN(C)C3CCOCC3)cc1)CCS2(=O)=O | 132 to 136 °C
O=C(Nc1cccc2c1CC(O)CC2)c1ccc(-c2ccc(F)c(F)c2)cc1 (stereo unspecified) | 210 to 213 °C
C#CC1(c2ccc(OC(F)F)c(OCC3CC3)c2)CCC(=O)CC1 | 75 to 77 °C
COc1ccc(-c2cc(COc3cccc4cc(NS(=O)(=O)C(F)(F)F)ccc34)ccc2F)cc1 | 132 to 133 °C
O=c1cnn(-c2cc(Cl)c(Cc3ccc(Cl)cc3)c(Cl)c2)c(=O)[nH]1 | 175 to 176 °C
CCCC[C@H](NC(=O)[C@H](CC(C)C)NC(=O)C1CCN(C(C)=O)CC1)C(=O)CSCc1ccco1 | 110 to 112 °C
CCC(=O)Nc1cccc(C(=O)C=CN(C)C)c1 | 106 to 108 °C
COc1cc(Cl)c(NN)c(Cl)c1 | 124 to 125 °C
COc1ccc(C2=C(CC(C)N)C(=O)NCCC2)cc1 (stereo unspecified) | 131 to 133 °C
O=C1NC(c2ccccc2)=N/C1=C\c1c[nH]c2ncc(Cl)cc12 | 250 °C
COC(=O)c1nn(-c2c(Cl)cc(C(F)(F)F)cc2Cl)c(OC)c1SC(F)(F)F | 97 to 98 °C
CON(C)Cc1nc2c(N)nc3ccccc3c2n1CC1(O)CCC1 | 219 to 221 °C
CN(C(=O)Nc1ccc(Cl)c(Cl)c1)S(=O)C(C)(C)C (stereo unspecified) | 118 °C
COC(=O)/C=C/c1cnc2ccccc2c1 | 118 to 120 °C
COC1=C(OC)C(=O)C2=C(CCC(CCOc3ccc4ccccc4n3)CC2)C1=O | 134 to 136 °C
CN(C)S(=O)(=O)c1ccc(C(F)(F)F)cc1N | 65 to 70 °C
CC(c1ccccc1)c1n[nH]c2c1c(=O)n(-c1cccc(C(F)(F)F)c1)c1ncccc21 (stereo unspecified) | 235 to 237 °C
CCN1C(=O)C(C)(C)C(=O)N(C)c2cc(OCCCN(CCc3cccnc3)C(=O)c3ccncc3)ccc21 | 88.1 to 92.2 °C

SMILES | melting point
CS(=O)Cc1ccc(Cl)nc1 (stereo unspecified) | 72 to 74 °C
Cc1cc(-c2cc(C(F)(F)F)[nH]n2)c(F)cc1Cl | 159 °C
CN(C)[C@@H]1c2ccccc2N(C(=O)c2ccc(NC(=O)c3ccccc3Cl)cc2)CC[C@H]1O (relative stereo) | 180 to 182 °C
Cc1cc(C2=NOC(c3cc(Cl)cc(Cl)c3)(C(F)(F)F)C2)ccc1C(=O)NCC(N)=O (stereo unspecified) | 87 to 91 °C
CN1C(=O)C2(COc3cc4c(cc32)OCCO4)c2c(NC(=O)C3CCCCC3)cccc21 (stereo unspecified) | 96 to 98 °C
COC(=O)c1ccc(N2CCC(N(C)Cc3ccccc3)CC2)cc1 | 103 to 104 °C
COC(=O)C1=C(CF)NC(C)=C(C(=O)OC(C)C)C1c1cccc([N+](=O)[O-])c1Cl (stereo unspecified) | 156 to 157 °C
Cc1cc(Cl)nn2c(-c3ccnc4c3ccn4S(=O)(=O)c3ccccc3)c(-c3ccc(F)cc3)nc12 | 226 to 228 °C
N#Cc1ccc2oc(CO)cc2c1 | 113 to 114 °C
CC1(C)CCOC1(O)Cn1cncn1 (stereo unspecified) | 93 to 95 °C
CCOC(=O)c1cnc(-c2ccc(OC)cc2OC)[nH]c1=O | 190 to 192 °C
Cc1ccc2c(c1)CC(=O)N2c1c(F)cc(F)c(F)c1F | 172 to 173 °C
O=C(NOCCBr)Nc1ccc(Cl)c(Cl)c1 | 126 °C
COc1ccc(-c2cc(CCCN3CCN(C)CC3)c(=O)n(Cc3ccc(F)cc3)n2)cc1F | 108 to 109 °C
CC(=O)NCc1ccc2ccn(C3CCN(CCc4ccc(Br)cc4)CC3)c2c1 | 140 to 141 °C
COc1ccccc1-n1c(=O)[nH]c2c(C(N)=O)nc(-c3cccc4[nH]cnc34)nc21 | 312 °C
Clc1ccc(-c2n[nH]c3cc4ccccc4cc23)cc1 | 192 °C
CC(C)C(=O)OC[C@@]1(N=[N+]=[N-])O[C@@H](n2ccc(N)nc2=O)[C@@H](OC(=O)C(C)C)[C@@H]1OC(=O)C(C)C | 167 to 169 °C
CCCCCCCCCCCCCCCC1Cc2cc(C(=O)O)ccc2N1 (racemic) | 102 to 104 °C

Continued, values first:

melting point | SMILES
74 °C | CN(C)Cc1ccc(CSCCNC(=O)NCCCCN(C)CCN(Cc2ccc(F)cc2)c2ccccn2)o1
126 to 130 °C | CC1(C)CC(=O)Nc2ccc(N)cc21
153 to 158 °C | O=C(O)C=CC(=O)c1ccccc1[N+](=O)[O-]
154 to 155 °C | CCOC(=O)c1ccc(NC(=O)CCc2ccc(C)cc2)cc1
132 to 134 °C | COc1ccc(F)cc1C(C)(C)CC(O)(CN1CC(=O)N(C)c2ccccc21)C(F)(F)F (stereo unspecified)
176 to 179 °C | O=C(C#Cc1ccc(C(F)(F)F)cc1Cl)Nc1ccc2nc(N3CCCCC3)ccc2c1
154 to 157 °C | Oc1ccc2c(c1)CCC(CCN1CCCCC1)C2 (stereo unspecified)
93.5 to 94.5 °C | CC1(C)COC(CCc2ccc(N)cc2)OC1
79 to 80 °C | COc1ccc(OCc2ccc3ccccc3n2)cc1
107 to 109 °C | C=CCc1c(C)ccc(N2C(=O)c3ccccc3C2=O)c1OCc1ccccc1
169 to 171 °C | Cn1cc(CCl)c(=O)c2ccc(F)cc21
165 °C | CSc1nc2ccnn2c(NCc2ccccc2)c1C#N
110 °C | Cc1ccnc(CN(C(=O)C(C)Cl)c2ccccc2)n1 (stereo unspecified)
241 to 242 °C | CC1(C)c2cc(C(=O)O)ccc2Oc2ncccc21
148 to 150 °C | CN1C(=O)C2CC2(c2ccc([N+](=O)[O-])cc2)C1=O (stereo unspecified)
104 to 105 °C | COC=C(C(=O)OC)N(C)c1nc(-c2ccc(Cl)cc2)cs1
120 to 122 °C | COc1cc(C(F)(F)F)cc(OC)c1C(=O)CCl
261 to 262 °C | COc1cc2ncnc(N3CCN(c4ccc5c(c4)CCC(=O)N5)CC3)c2cc1OC
100 to 106 °C | Brc1ccc(OCc2ccccn2)cc1/C=C/c1cc(/C=C/c2ccc3cc[nH]c3c2)[nH]n1
150 °C | Cc1ccc2c(c1)c(=O)oc(=O)n2Cc1ccccc1
170 to 172 °C | CCc1ccc2oc(C(=O)Nc3ccc(-c4ccc(S(=O)(=O)NC(C(=O)OC)C(C)C)cc4)cc3)c(C)c2c1OC (stereo unspecified)
223 to 227 °C | O=C(Cc1ccc([N+](=O)[O-])cc1)c1c(O)c2cccnc2n(-c2ccccc2)c1=O

melting point | SMILES
135 to 137 °C | CC(=O)c1ccc(C(=O)N2Cc3cccn3Cc3ccccc32)cc1
56.5 to 59.5 °C | CCCCCCCCCCCCCCCCCCCCCCOc1ccc(C(=O)OCC)cc1
247 to 248 °C | N#CCc1c(-c2ccccc2)[nH]c2nccnc12
169 to 171 °C | N#Cc1cncc(C2OC(CO)C(O)C2O)c1 (stereo unspecified)
90 °C | CN1CCC(OC2c3ccccc3CCn3c2nc(-c2ccccc2)c3-c2ccccc2)CC1 (stereo unspecified)
121 to 124 °C | CC(C)c1ccc(C2(OC(=O)C(C)(C)C)C(=O)c3ccccc3C2=O)c(OC(=O)C(C)(C)C)c1
248 to 249 °C | O=S(=O)(Nc1cccc(Cl)c1)c1ccc(Nc2nc(OCC3CCCCC3)c3nc[nH]c3n2)cc1
103 to 104 °C | C(=C\c1nc(COc2ccc(CCCCn3ccnc3)cc2)co1)/c1ccccc1
167 to 169 °C | O=C(c1ccccc1)N1CCCC1c1cccc(O)c1 (stereo unspecified)
63 to 64 °C | CCc1nc(-c2ccc(OCCCc3cccnc3)cc2)no1
98 to 99 °C | Cc1nccc(-c2ccccc2)c1/C=C/C=O
62 to 63 °C | CCOC(=O)CCCCCCC1C(=O)NC(=O)N1CCC(O)C1CCCCC1 (stereo unspecified)
143 to 145 °C | CC(C)(C)c1cc(SCc2ccc(C#N)cc2)cc(C(C)(C)C)c1O
164 to 166 °C | CCCc1nc2c(N)nc3ccccc3c2n1CCCCN(OC)C(=O)Nc1ccccc1
52 to 53 °C | CNc1ncccc1[N+](=O)[O-]
61 to 62 °C | CCCCCCOc1ccc(-c2ccccc2)cc1
178 to 181 °C | CCCSc1ncc(CC(NC(=O)CCC)C(=O)O)n1Cc1ccccc1Cl (stereo unspecified)
114 to 115 °C | CCSC1=NCC(=O)N1c1ccc(F)cc1
73 to 74 °C | O=C1NCC(CCc2ccccc2F)O1 (stereo unspecified)
95 °C | CCCC(C(=O)OCC)n1cnc(C(N)=O)c1 (stereo unspecified)
210 to 215 °C | CC12CCC3c4ccc(C(=O)O)cc4CCC3C1CCC2C(=O)c1ccccc1 (stereo unspecified)
297 to 298 °C | O=c1[nH]ncn1-c1ccc(-n2ncn(-c3ccc(OCC(F)(F)C(F)F)cc3)c2=O)cc1

— a melting point compilation (Tetko et al.; mined from patent text by program, amines drawn as free bases though some values may be those of a salt)
